How the values were obtained:
firefly luciferase = firefly luciferase (Photinus pyralis, UniProt P08659); test: Direct influence on luciferase activity (control); assay type: biochemical; conditions: not shown
[1] = molecular target: autophagocytosis (luciferase uptake into isolated yeast vacuoles); test: In vitro autophagocytosis assay (luciferase uptake into isolated vacuoles); assay type: biochemical, Saccharomyces cerevisiae; conditions: standard uptake reaction, cell-free, sample without inhibitor as 100% reference, FIG. 7; read-out: IC50 for prevention of vesicle formation (luciferase uptake)
Experimental: This mixture was incubated for 1 h at 27° C. A 70 μl sample was chilled on ice, diluted with 300 μl 150 mM KCl in PS buffer, centrifuged (6800×g, 4 min, 2° C., fixed angle table top centrifuge), washed twice with 300 μl 150 mM KCl in PS buffer, and resuspended in 60 μl 150 mM KCl in PS buffer. 10 μl were used to check for complete vacuole recovery by determining the protein concentration or, alternatively, the activity of endogenous Pho8p (according to Haas et al., 1994). 40 μl of the suspension were treated with proteinase K (15 min, 0° C., 275 μg/ml, added from a 5 mg/ml stock in PS) to digest surface-bound luciferase. Digestion was terminated by adding an equal volume of freshly prepared PMSF solution (0.5 mM PMSF, 150 mM KCl, in PS buffer). Luciferase activity was determined from a 25 μl aliquot in a luminometer using a luciferase kit (Berthold Detection Systems, Pforzheim) according to the instructions of the supplier.

[2] = system: autophagocytosis in yeast; conditions: nocodazole treatment disassembling microtubules (Kirisako et al. 1999); cited from earlier work

Sequence of firefly luciferase (P08659 whole entry): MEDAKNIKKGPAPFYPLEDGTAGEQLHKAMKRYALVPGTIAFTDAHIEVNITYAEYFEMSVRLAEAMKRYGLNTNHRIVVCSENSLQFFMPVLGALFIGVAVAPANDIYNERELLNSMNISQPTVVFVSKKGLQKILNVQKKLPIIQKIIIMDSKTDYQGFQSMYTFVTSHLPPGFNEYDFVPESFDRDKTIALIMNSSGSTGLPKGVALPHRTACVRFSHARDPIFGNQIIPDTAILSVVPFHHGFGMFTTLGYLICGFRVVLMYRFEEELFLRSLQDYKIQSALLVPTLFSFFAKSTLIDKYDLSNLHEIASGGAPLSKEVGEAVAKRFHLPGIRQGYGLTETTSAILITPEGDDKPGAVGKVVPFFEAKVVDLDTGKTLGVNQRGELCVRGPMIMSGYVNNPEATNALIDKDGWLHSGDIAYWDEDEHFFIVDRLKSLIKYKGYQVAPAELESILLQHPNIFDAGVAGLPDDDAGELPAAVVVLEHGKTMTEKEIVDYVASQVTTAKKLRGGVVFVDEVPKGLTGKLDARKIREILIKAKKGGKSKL

Row | Compound | influence on luciferase activity by itself (firefly luciferase) | IC50 [1] [µM] | block of autophagocytosis in yeast [2]
1 | Nc1nc2c(ncn2[C@@H]2O[C@H](COP(=O)(O)OP(=O)(O)OP(O)(O)=S)[C@@H](O)[C@H]2O)c(=O)[nH]1 [GTPγS] | did not influence luciferase activity by itself | 100 | –
2 | COC(=O)Nc1nc2ccc(C(=O)c3cccs3)cc2[nH]1 [nocodazole] | – | – | does not block autophagocytosis

From US20040171061A1 (priority 2000, published 2004)
